Data from ChEMBL document CHEMBL4483862, “Open-source discovery of chemical leads for next-generation chemoprotective antimalarials” (2018).

Tested on: Plasmodium berghei
Experiment: Luciferase/luciferin-expressing antifolate-resistant parasites were used to infect a culture of HepG2 cells that were pre-incubated with compounds. Infected hepatocytes emit light due to the luciferase reaction. Assay results are presented as the percent inhibition of light emission compared to control. […]
Format: functional
Conditions: sporozoite; for IC90: read-out: LUCIFERASE INFECTION ASSAY - IC90
[1] = read-out: LUCIFERASE INFECTION ASSAY - IC50

Row | SMILES | IC90 [µM] | IC50 [1] [µM] | also measured
1 | COc1ccc(CCNC(=O)c2ccc3cc[nH]c3c2)cc1 | > 11.2 | – | IC50 (PBLUC_HILL_SLOPE 0.599, PBLUC_R_SQUARED 0.245, read-out: LUCIFERASE INFECTION ASSAY - IC50): 4.75 µM
2 | O=C(NCc1cc(C(F)(F)F)cc(C(F)(F)F)c1)c1cc(Cl)cc(Cl)c1 | > 7.93 | > 7.93 | –
3 | NC(Cc1ccc(C(F)(F)F)cc1)c1csc(Nc2nncc3ccccc23)n1 (stereo unspecified) | > 7.94 | > 7.94 | –
4 | CC(=O)O[C@]1(C(C)=O)CCC2C3C[C@H](C)C4=CC(=O)CCC4(C)C3CCC21C (stereo partly specified) | > 8.54 | – | IC50 (HEPG2TOX_HILL_SLOPE 11.5, HEPG2TOX_R_SQUARED 0.0757, read-out: LUCIFERASE INFECTION ASSAY - IC50): > 8.54 µM
5 | c1ccc(-c2cn3c(-c4ccc5c(c4)OCO5)cnc3cn2)cc1 | > 10.5 | – | IC50 (HEPG2TOX_HILL_SLOPE 0.346, HEPG2TOX_R_SQUARED 0.507, PBLUC_HILL_SLOPE 2.83, PBLUC_R_SQUARED 0.466, read-out: LUCIFERASE INFECTION ASSAY - IC50): 9.02 µM
6 | OC(CN1CCCCC1)Cn1c2ccc(Br)cc2c2cc(Br)cc(Br)c21 (stereo unspecified) | > 6.05 | > 6.05 | –
7 | CCn1c(=O)n(CC(=O)Nc2ccc(NC(=O)NC3CC3)cc2)c2ccccc21 | > 10 | > 10 | –
8 | Cc1ccc(Cn2nc(C)cc2C(=O)Sc2ccccc2)cc1 | > 10.2 | > 10.2 | –
9 | Cc1ccc2cc(C)c(N/N=C/c3c(C)nn(-c4ccccc4)c3Cl)nc2c1 | 9.17 | – | IC50 (PBLUC_HILL_SLOPE 2.56, PBLUC_R_SQUARED 0.451, read-out: LUCIFERASE INFECTION ASSAY - IC50): 3.89 µM
10 | Cc1cc(-c2cccc3[nH]c(C(F)(F)F)nc23)nn1C(=O)c1ccc([N+](=O)[O-])cc1 | > 10 | – | IC50 (FFLUC_HILL_SLOPE 35.5, FFLUC_R_SQUARED 0.403, HEPG2TOX_HILL_SLOPE 0.192, HEPG2TOX_R_SQUARED 0.301, PBLUC_HILL_SLOPE 13.6, PBLUC_R_SQUARED 0.349, read-out: LUCIFERASE INFECTION ASSAY - IC50): 9.27 µM
11 | CC(=O)c1ccc(-c2ccc(C(=O)N3CCC(c4nc5ccccc5o4)CC3)o2)cc1 | > 10 | – | IC50 (HEPG2TOX_HILL_SLOPE 6.21, HEPG2TOX_R_SQUARED 0.873, read-out: LUCIFERASE INFECTION ASSAY - IC50): > 10 µM
12 | CC(C)c1ccccc1NC(=O)Nc1nc(C(N)C2CCCCC2)cs1 (stereo unspecified) | 8 | – | IC50 (HEPG2TOX_HILL_SLOPE 0.21, HEPG2TOX_R_SQUARED 0.263, PBLUC_HILL_SLOPE 31.8, PBLUC_R_SQUARED 0.686, read-out: LUCIFERASE INFECTION ASSAY - IC50): 7.47 µM
13 | Fc1ccc(CNc2ccc(-c3nc4ccccc4[nH]3)cc2)cc1 | > 10.4 | – | IC50 (PBLUC_HILL_SLOPE 15.3, PBLUC_R_SQUARED 0.322, read-out: LUCIFERASE INFECTION ASSAY - IC50): 9.03 µM
14 | CC(C)C(=O)NC1CCCC(C)C1C (stereo unspecified) | > 2 | > 2 | –
15 | S=C(Nc1ccc(Cl)c(Cl)c1)N1c2ccccc2-n2cccc2C1c1cccnc1 (stereo unspecified) | 6.49 | – | IC50 (PBLUC_HILL_SLOPE 3.68, PBLUC_R_SQUARED 0.381, read-out: LUCIFERASE INFECTION ASSAY - IC50): 3.57 µM
16 | O=C(N/N=C(\Cc1ncc[nH]1)c1ccccc1)c1ccncc1 | 3.77 | – | IC50 (HEPG2TOX_HILL_SLOPE 3.38, HEPG2TOX_R_SQUARED 0.998, PBLUC_HILL_SLOPE 17.1, PBLUC_R_SQUARED 0.54, read-out: LUCIFERASE INFECTION ASSAY - IC50): 3.31 µM
17 | COc1ccc(OCc2nnc(SCC(=O)NCC3CCCO3)n2N)cc1 (stereo unspecified) | > 10 | > 10 | –
18 | CC(C)(C)NCc1cc(Cl)ccc1OCc1ccccc1F | > 9.21 | – | IC50 (PBLUC_HILL_SLOPE 1.1, PBLUC_R_SQUARED 0.254, read-out: LUCIFERASE INFECTION ASSAY - IC50): 4.67 µM
19 | Cc1cnc(NC(=O)c2ccccc2NS(=O)(=O)c2cccc(C(F)(F)F)c2)s1 | > 10 | – | IC50 (HEPG2TOX_HILL_SLOPE 2.85, HEPG2TOX_R_SQUARED 0.86, read-out: LUCIFERASE INFECTION ASSAY - IC50): > 10 µM
20 | Cc1cc(Nc2ccc3c(=O)c(-c4c(F)cccc4Cl)c(C)oc3c2)no1 | > 10 | – | IC50 (HEPG2TOX_HILL_SLOPE 11.5, HEPG2TOX_R_SQUARED 0.0504, PBLUC_HILL_SLOPE 0.784, PBLUC_R_SQUARED 0.684, read-out: LUCIFERASE INFECTION ASSAY - IC50): 1.11 µM
21 | CC(=O)c1ccc(NC(=O)N2[C@@H]3CC[C@@H](C3)[C@H]2c2nc3cccc(OCc4ccccc4)c3[nH]2)cc1 | > 10 | – | IC50 (FFLUC_HILL_SLOPE 3.04, FFLUC_R_SQUARED 0.885, read-out: LUCIFERASE INFECTION ASSAY - IC50): > 10 µM
22 | Fc1ccc(/C=N/n2c(-c3ccc(Cl)cc3)cs/c2=N\CC2CCCO2)cc1 (stereo unspecified) | > 10 | – | IC50 (PBLUC_HILL_SLOPE 2, PBLUC_R_SQUARED 0.363, read-out: LUCIFERASE INFECTION ASSAY - IC50): 5.58 µM

Row | SMILES | IC90 [µM] | IC50 [1] [µM] | also measured
23 | CCCN(CC(=O)Nc1scc(-c2ccccc2)c1C(=O)OCC)Cc1nnc(-c2ccco2)o1 | > 10 | > 10 | –
24 | O=C(Nc1nc(CN2CCOCC2)cs1)c1ccccc1Nc1ccccc1 | > 10 | > 10 | –
25 | O=S(=O)(Oc1ccc(Cl)cc1)c1cc(S(=O)(=O)c2ccccc2)cs1 | > 7.95 | > 7.95 | –
26 | C(=C(c1nc2ccccc2s1)c1nc2ccccc2s1)c1ccccn1 | > 10 | > 10 | –
27 | CN(C)c1ccc(S(N)(=O)=O)cc1NC(=O)Cc1ccc(-c2ccccc2)cc1 | > 10 | – | IC50 (PBLUC_HILL_SLOPE 2.92, PBLUC_R_SQUARED 0.577, read-out: LUCIFERASE INFECTION ASSAY - IC50): 5.33 µM
28 | CN(c1ccccc1)S(=O)(=O)c1ccc(C(=O)Nc2nc(-c3cc(Cl)sc3Cl)cs2)cc1 | 8.48 | – | IC50 (FFLUC_HILL_SLOPE 19.7, FFLUC_R_SQUARED 0.521, HEPG2TOX_HILL_SLOPE 3.83, HEPG2TOX_R_SQUARED 0.989, PBLUC_HILL_SLOPE 4.8, PBLUC_R_SQUARED 0.68, read-out: LUCIFERASE INFECTION ASSAY - IC50): 5.36 µM
29 | CCCOc1c(Cl)cc(C(=O)Nc2nonc2-c2cccs2)cc1Cl | 2.87 | – | IC50 (HEPG2TOX_HILL_SLOPE 2.94, HEPG2TOX_R_SQUARED 0.74, PBLUC_HILL_SLOPE 28.4, PBLUC_R_SQUARED 0.116, read-out: LUCIFERASE INFECTION ASSAY - IC50): 2.66 µM
30 | COc1ccc2cc(CN(C)C(C)C(=O)NCc3ccc(F)cc3)ccc2c1 (stereo unspecified) | > 10 | – | IC50 (HEPG2TOX_HILL_SLOPE 14.9, HEPG2TOX_R_SQUARED 0.671, read-out: LUCIFERASE INFECTION ASSAY - IC50): > 10 µM
31 | Cc1cc(C(=O)CN2C(=O)C(=O)N(Cc3ccccc3)C2=O)c(C)n1-c1ccc2c(c1)OCO2 | > 10 | – | IC50 (HEPG2TOX_HILL_SLOPE 8.65, HEPG2TOX_R_SQUARED 0.666, PBLUC_HILL_SLOPE 3.13, PBLUC_R_SQUARED 0.534, read-out: LUCIFERASE INFECTION ASSAY - IC50): 6.04 µM
32 | Cc1nc2ccccc2c(=O)n1/N=C/c1cn(-c2ccccc2)nc1-c1cccs1 | > 10 | – | IC50 (PBLUC_HILL_SLOPE 10.9, PBLUC_R_SQUARED 0.148, read-out: LUCIFERASE INFECTION ASSAY - IC50): 8.36 µM
33 | O=C(c1nn(-c2ccccc2)c(=O)c2ccccc12)N(CCCN1CCOCC1)Cc1cccs1 | > 10 | – | IC50 (PBLUC_HILL_SLOPE 4.06, PBLUC_R_SQUARED 0.124, read-out: LUCIFERASE INFECTION ASSAY - IC50): 8.65 µM
34 | Cc1nc2ncnn2c(C)c1CC(=O)NCCCSc1ccc(F)cc1 | > 10 | > 10 | –
35 | Cc1ccc(/C=C/C(=O)NC2=NCCS2)c(Br)c1 | > 10 | – | IC50 (PBLUC_HILL_SLOPE 0.976, PBLUC_R_SQUARED 0.447, read-out: LUCIFERASE INFECTION ASSAY - IC50): 3.48 µM
36 | CCN1C(c2ccc(C)cc2)=CS/C1=C(/C#N)c1nnc2n1CCCCC2 | > 10 | > 10 | –
37 | O=C(NCc1ccccc1)C(=Cc1ccc(-c2ccccc2)cc1)C(=O)NCc1ccccc1 | 9.48 | – | IC50 (PBLUC_HILL_SLOPE 2.95, PBLUC_R_SQUARED 0.782, read-out: LUCIFERASE INFECTION ASSAY - IC50): 4.51 µM
38 | c1ccc(OCCN2CCN(c3ccc(-c4nc5ccccc5[nH]4)cn3)CC2)cc1 | > 10 | – | IC50 (PBLUC_HILL_SLOPE 16.1, PBLUC_R_SQUARED 0.136, read-out: LUCIFERASE INFECTION ASSAY - IC50): 9.41 µM
39 | O=C(NCc1ccccn1)c1nn(CCc2ccccc2)c2c1CN(Cc1cccc3c1OCO3)CC2 | > 6.66 | – | IC50 (PBLUC_HILL_SLOPE 2.34, PBLUC_R_SQUARED 0.543, read-out: LUCIFERASE INFECTION ASSAY - IC50): 5.68 µM
40 | CC(Sc1nc(-c2ccccc2)c(-c2ccccc2)o1)C(=O)N1CCCC1 (stereo unspecified) | 1.48 | – | IC50 (HEPG2TOX_HILL_SLOPE 2.22, HEPG2TOX_R_SQUARED 0.0759, PBLUC_HILL_SLOPE 15.7, PBLUC_R_SQUARED 0.556, read-out: LUCIFERASE INFECTION ASSAY - IC50): 1.29 µM
41 | CCN(CC)S(=O)(=O)c1ccc(C(=O)Nc2ccc(C34CC5CC(CC(O)(C5)C3)C4)cc2)cc1 | > 10 | > 10 | –
42 | O=c1c2cc(Cl)cc(Cl)c2nc(-c2cccc(C(F)(F)F)c2)n1O | > 8.8 | – | IC50 (HEPG2TOX_HILL_SLOPE 1.01, HEPG2TOX_R_SQUARED 0.454, PBLUC_HILL_SLOPE 14.5, PBLUC_R_SQUARED 0.382, read-out: LUCIFERASE INFECTION ASSAY - IC50): 8.11 µM
43 | O=C(Nc1nc2ccccn2c1C(=O)NC1CCCC1)c1ccc(Cl)cc1 | 1.21 | – | IC50 (HEPG2TOX_HILL_SLOPE 0.927, HEPG2TOX_R_SQUARED 0.795, PBLUC_HILL_SLOPE 2.2, PBLUC_R_SQUARED 0.668, read-out: LUCIFERASE INFECTION ASSAY - IC50): 0.447 µM
